Laboratory results: patent US8178506B2, “Oligomeric compounds and compositions for use in modulation of small non-coding RNAs” (Regulus Therapeutics Inc., priority 2003, dated 2012)
In the oligonucleotide strings, read from the 5' end, every base follows the letter of its sugar. An asterisk marks phosphorothioate; unmarked linkages are phosphodiester. Other units and linkages are bracketed, terminal groups are in braces. A string of capitals states the bases alone. e = 2'-O-(2-methoxyethyl) (MOE); [5mC] = 5-methylcytosine; d = 2'-deoxy (DNA)

Tests used:
T47D cells = assay: Caspase-3 activity assay (apoptosis) in T47D cells; conditions: T47D cells, 48 hours; for Fold Increase over UTC (caspase activity): 200 nM, relative to untreated control; for Fold Increase over UTC (caspase-3 activity, apoptosis): 200 nM oligomeric compound
IL-12 mRNA = IL-12 mRNA in LPS-activated primary murine macrophages; assay type: cell-based, mouse; conditions: normalized to LPS-treated cells without oligomeric compound; for IL-12 mRNA expression, −IFN % UTC: 300 nM oligomeric compound and LPS, no IFN-gamma pretreatment, single experiment; for IL-12 mRNA expression, +IFN % UTC: 300 nM oligomeric compound, stimulation with IFN-gamma and LPS, average of 2 experiments
Experimental: To investigate the role of miRNAs in the immune response, oligomeric compounds of the present invention targeting miRNAs were tested for their effects upon lipopolysaccharide (LPS)-activated primary murine macrophages. Macrophages participate in the immune response, for example, in the recognition and phagocytosis of microorganisms, including bacteria. Interferon-gamma (IFN-gamma) released by helper T cells is one type of signal required for macrophage activation, and LPS can serve as an additional stimulus. LPS is a component of the gram-negative bacterial cell wall and acts as an agonist for toll-like receptor 4 (TLR4), the primary LPS receptor expressed by macrophages. The proinflammatory cytokines interleukin-12 (IL-12) and interleukin-6 (IL-6) are induced by LPS treatment of macrophages, thus the expression of the mRNAs encoding these cytokines was used to evaluate the response of macrophages to LPS following treatment with oligomeric compounds targeting miRNAs.
Macrophages were isolated as follows. Female C57B1/6 mice (Charles River Laboratories, Wilmington, Mass.) were injected intraperitoneally with 1 ml 3% thioglycollate broth (Sigma-Aldrich, St. Louis, Mo.), and peritoneal macrophage cells were isolated by peritoneal lavage 4 days later. The cells were plated in 96-well plates at 40,000 cells/well for one hour in serum-free RPMI adjusted to contain 10 mM HEPES (Invitrogen Life Technologies, Carlsbad, Calif.), allowed to adhere, then non-adherent cells were washed away and the media was replaced with RPMI containing 10 mM HEPES, 10% FBS and penicillin/streptomycin (“complete” RPMI; Invitrogen Life Technologies, Carlsbad, Calif.).
Oligomeric compounds were introduced into the cells using the non-liposomal transfection reagent FuGENE 6 Transfection Reagent (Roche Diagnostics Corp., Indianapolis, Ind.). Oligomeric compound was mixed with FuGENE 6 in 1 mL of serum-free RPMI to achieve a concentration of 10 μL FuGENE per 1000 nM oligomeric compound. The oligomeric compound/FuGENE complex was allowed to form at room temperature for 20 minutes. This mixture was diluted to the desired concentration of oligomeric compound by the addition of the appropriate volume of complete RPMI. The final ratio of FuGENE 6 to oligomeric compound was 1 μL of FuGENE 6 per 100 nM oligomeric compound. A volume of 100 μL of oligomeric compound/FuGENE/RPMI was added to each well of the 96-well plate in which the macrophages were cultured. Each oligomeric compound treatment was repeated in triplicate.
Following oligomeric compound treatment, cells were stimultated with LPS. Cells were cultured in the presence of the transfection complex for approximately 24 to 28 hours at 37° C. and 5% CO2, after which the medium containing the transfection complex was removed from the cells, and complete RPMI containing 100 ng/mL LPS (Sigma-Aldrich Corp., St. Louis, Mo.) was added to the cells for a period of approximately 24 hours. Control samples included (1) cells receiving no oligomeric compound, stimulated with LPS and (2) cells receiving neither oligomeric compound nor LPS treatment.
In another embodiment, following oligomeric compound treatment, cells were first activated by IFN-gamma, to amplify the response to LPS. Cells were cultured in the presence of the transfection complex for approximately 24 hours at 37° C. and 5% CO2, at which point the medium containing the transfection complex was removed from the cells, and complete RPMI containing 100 ng/mL recombinant mouse IFN-gamma (R&D Systems, Minneapolis, Minn.) was added to the cells. After the 4 hour treatment with INF-gamma, cells were treated with 100 ng/mL LPS for approximately 24 hours. Control samples included (1) cells receiving no oligomeric compound, stimulated with LPS and (2) cells receiving neither oligomeric compound nor LPS treatment. […]

328371 (eT*e[5mC]*e[5mC]*eA*eT*dA*dG*d[5mC]*dT*dT*dA*dG*d[5mC]*dA*dG*eG*eT*e[5mC]*e[5mC]*eA; antisense) [compound 328371]
Fold Increase over UTC (caspase activity) (T47D cells): 1.2

328372 (eT*eT*eT*eG*eA*dT*dA*dG*dT*dT*dT*dA*dG*dA*d[5mC]*eA*e[5mC]*eA*eA*eA; antisense) [compound 328372]
Fold Increase over UTC (caspase activity) (T47D cells): 1.0

328373 (eG*eG*eG*eA*eA*dG*dG*dA*dT*dT*dG*d[5mC]*d[5mC]*dT*dA*eG*e[5mC]*eA*eG*eT; antisense) [compound 328373]
Fold Increase over UTC (caspase-3 activity, apoptosis) (T47D cells; experiment of Table 12): 0.9 fold

328375 (eT*eA*e[5mC]*e[5mC]*eA*dT*dA*d[5mC]*dA*dG*dA*dA*dA*d[5mC]*dA*e[5mC]*eA*eG*e[5mC]*eA; antisense) [compound 328375]
Fold Increase over UTC (caspase-3 activity, apoptosis) (T47D cells; experiment of Table 10): 0.9 fold

328376 (eT*e[5mC]*eA*e[5mC]*eA*dA*dT*d[5mC]*d[5mC]*d[5mC]*d[5mC]*dA*d[5mC]*d[5mC]*dA*eA*eA*e[5mC]*eT*e[5mC]; antisense) [compound 328376]
Fold Increase over UTC (caspase-3 activity, apoptosis) (T47D cells; experiment of Table 11): 0.7 fold

328378 (e[5mC]*eA*e[5mC]*e[5mC]*e[5mC]*dT*d[5mC]*d[5mC]*dA*dG*dT*dG*d[5mC]*dT*dG*eT*eT*eA*eG*eT; antisense) [compound 328378]
Fold Increase over UTC (caspase activity) (T47D cells): 1.0

328379 (e[5mC]*eT*eG*eA*e[5mC]*dT*dG*dA*dG*dA*d[5mC]*dT*dG*dT*dT*e[5mC]*eA*e[5mC]*eA*eG; antisense) [compound 328379]
Fold Increase over UTC (caspase-3 activity, apoptosis) (T47D cells; experiment of Table 12): 1.1 fold

328381 (eA*e[5mC]*eA*eG*eG*dT*dG*dA*dG*d[5mC]*dG*dG*dA*dT*dG*eT*eT*e[5mC]*eT*eG; antisense) [compound 328381]
Fold Increase over UTC (caspase activity) (T47D cells): 1.1

328385 (eA*eG*eT*eG*e[5mC]*dT*dA*dA*dT*dA*d[5mC]*dT*dT*d[5mC]*dT*eT*eT*e[5mC]*eA*eT; antisense) [compound 328385]
Fold Increase over UTC (caspase-3 activity, apoptosis) (T47D cells; experiment of Table 10): 0.9 fold

328386 (eA*e[5mC]*e[5mC]*eT*eG*dT*dG*dT*dA*dA*d[5mC]*dA*dG*d[5mC]*d[5mC]*eG*eT*eG*eT*eA; antisense) [compound 328386]
Fold Increase over UTC (caspase-3 activity, apoptosis) (T47D cells; experiment of Table 11): 0.7 fold

328387 (eT*eT*eA*eT*e[5mC]*dG*dG*dA*dA*d[5mC]*dT*dT*d[5mC]*dA*d[5mC]*eA*eG*eA*eG*eA; antisense) [compound 328387]
Fold Increase over UTC (caspase-3 activity, apoptosis) (T47D cells; experiment of Table 12): 1.4 fold

328389 (eG*eG*e[5mC]*eA*e[5mC]*dT*dT*d[5mC]*dA*dT*dT*dG*d[5mC]*dT*dG*e[5mC]*eT*eG*e[5mC]*e[5mC]; antisense) [compound 328389]
Fold Increase over UTC (caspase-3 activity, apoptosis) (T47D cells; experiment of Table 12): 1.1 fold

328390 (eG*eG*eA*eG*e[5mC]*d[5mC]*dT*dT*dG*d[5mC]*dG*d[5mC]*dT*d[5mC]*dA*eG*e[5mC]*eA*eT*eT; antisense) [compound 328390]
Fold Increase over UTC (caspase-3 activity, apoptosis) (T47D cells; experiment of Table 11): 0.9 fold

328391 (eA*eT*eG*eG*eT*dA*dA*dT*dT*dT*d[5mC]*dA*dT*dT*dT*e[5mC]*eA*eG*eG*e[5mC]; antisense) [compound 328391]
Fold Increase over UTC (caspase activity) (T47D cells): 0.8

328392 (eG*eA*eT*eT*eG*d[5mC]*dA*d[5mC]*dA*dT*d[5mC]*d[5mC]*dA*d[5mC]*dA*e[5mC]*eT*eG*eT*e[5mC]; antisense) [compound 328392]
Fold Increase over UTC (caspase activity) (T47D cells): 1.0

328393 (eG*e[5mC]*eT*eG*eG*d[5mC]*d[5mC]*dT*dG*dA*dT*dA*dG*d[5mC]*d[5mC]*e[5mC]*eT*eT*e[5mC]*eT; antisense) [compound 328393]
Fold Increase over UTC (caspase-3 activity, apoptosis) (T47D cells; experiment of Table 11): 1.5 fold

328395 (antisense e[5mC]*e[5mC]*e[5mC]*eA*eG*dT*dG*dG*dT*dG*dG*dG*dT*dG*dT*eG*eA*e[5mC]*e[5mC]*e[5mC]) [compound 328395]
Fold Increase over UTC (caspase-3 activity, apoptosis) (T47D cells; experiment of Table 10): 1.0 fold

328398 (antisense eG*e[5mC]*e[5mC]*eA*eT*dT*dG*dG*dG*dA*d[5mC]*d[5mC]*dT*dG*d[5mC]*eA*e[5mC]*eA*eG*e[5mC]) [compound 328398]
Fold Increase over UTC (caspase-3 activity, apoptosis) (T47D cells; experiment of Table 10): 0.9 fold

328399 (antisense eA*eT*eG*eG*eG*dT*dA*d[5mC]*d[5mC]*dA*d[5mC]*d[5mC]*dA*dG*dA*eA*e[5mC]*eA*eT*eG) [compound 328399]
Fold Increase over UTC (caspase-3 activity, apoptosis) (T47D cells; experiment of Table 10): 1.0 fold

328401 (antisense eG*e[5mC]*e[5mC]*e[5mC]*eT*d[5mC]*dG*dA*d[5mC]*dG*dA*dA*dA*dA*d[5mC]*e[5mC]*eG*eA*e[5mC]*eT) [compound 328401]
Fold Increase over UTC (caspase-3 activity, apoptosis) (T47D cells; experiment of Table 12): 0.8 fold

328402 (antisense eT*eT*eG*eA*eA*d[5mC]*dT*d[5mC]*d[5mC]*dA*dT*dG*d[5mC]*d[5mC]*dA*e[5mC]*eA*eA*eG*eG) [compound 328402]
Fold Increase over UTC (caspase-3 activity, apoptosis) (T47D cells; experiment of Table 10): 1.2 fold

328404 (antisense eG*eT*eA*eG*eA*dT*d[5mC]*dT*d[5mC]*dA*dA*dA*dA*dA*dG*e[5mC]*eT*eA*e[5mC]*e[5mC]) [compound 328404]
Fold Increase over UTC (caspase-3 activity, apoptosis) (T47D cells; experiment of Table 11): 0.9 fold

328405 (antisense e[5mC]*eT*eG*eA*eA*d[5mC]*dA*dG*dG*dG*dT*dA*dA*dA*dA*eT*e[5mC]*eA*e[5mC]*eT) [compound 328405]
Fold Increase over UTC (caspase activity) (T47D cells): 1.0

328406 (antisense eA*eG*e[5mC]*eA*eA*dG*dT*d[5mC]*dT*dA*d[5mC]*dT*d[5mC]*d[5mC]*dT*e[5mC]*eA*eG*eG*eG) [compound 328406]
Fold Increase over UTC (caspase-3 activity, apoptosis) (T47D cells; experiment of Table 11): 1.0 fold

328407 (antisense eA*eA*eT*eG*eG*dA*dG*d[5mC]*d[5mC]*dA*dA*dG*dG*dT*dG*e[5mC]*eT*eG*e[5mC]*e[5mC]) [compound 328407]
Fold Increase over UTC (caspase-3 activity, apoptosis) (T47D cells; experiment of Table 11): 1.2 fold

340345 (antisense GGAACUUAGCCACUGUGAA; all 2'-MOE, all phosphorothioate, methylation of C and T or U not given here) [compound 340345]
IL-12 mRNA expression, −IFN % UTC (IL-12 mRNA): 104 % UTC
IL-12 mRNA expression, +IFN % UTC (IL-12 mRNA): 78 % UTC

341786 (antisense CGCAAGGUCGGUUCUACGGGUG; all 2'-MOE, all phosphorothioate, methylation of C and T or U not given here) [compound 341786]
IL-12 mRNA expression, −IFN % UTC (IL-12 mRNA): 266 % UTC
IL-12 mRNA expression, +IFN % UTC (IL-12 mRNA): 99 % UTC

341790 (antisense CGAAGGCAACACGGAUAACCUA; all 2'-MOE, all phosphorothioate, methylation of C and T or U not given here) [compound 341790]
IL-12 mRNA expression, −IFN % UTC (IL-12 mRNA): 318 % UTC
IL-12 mRNA expression, +IFN % UTC (IL-12 mRNA): 84 % UTC

341793 (antisense CCAUAAAGUAGGAAACACUACA; all 2'-MOE, all phosphorothioate, methylation of C and T or U not given here) [compound 341793]
IL-12 mRNA expression, −IFN % UTC (IL-12 mRNA): 202 % UTC
IL-12 mRNA expression, +IFN % UTC (IL-12 mRNA): 147 % UTC

341811 (antisense UCCACAUGGAGUUGCUGUUACA; all 2'-MOE, all phosphorothioate, methylation of C and T or U not given here) [compound 341811]
IL-12 mRNA expression, −IFN % UTC (IL-12 mRNA): 154 % UTC
IL-12 mRNA expression, +IFN % UTC (IL-12 mRNA): 88 % UTC

341815 (antisense CAUCGUUACCAGACAGUGUUA; all 2'-MOE, all phosphorothioate, methylation of C and T or U not given here) [compound 341815]
IL-12 mRNA expression, −IFN % UTC (IL-12 mRNA): 190 % UTC
IL-12 mRNA expression, +IFN % UTC (IL-12 mRNA): 157 % UTC
